Reference: US20250302816A1, “DISRUPTION OF EPITHELIAL BARRIERS FOR MOLECULAR DELIVERY ENHANCEMENT OR EXTRACTION OF EXTRACELLULAR FLUIDS” (The University of Nottingham, priority 2022, published 2025)

Assays:
Assay type in all cases: cell-based, human
ZO-1 = ZO-1 immunostaining and confocal microscopy of Calu-3 cell layers; conditions: 200 μM, one hour, vs vehicle 0.15% DMSO
Experimental: To visualise the effect of 3OC12-HSL and C7 PQS on tight junction integrity in Calu-3 cell layers, ZO-1, immunostaining and confocal microscopy was performed on cell layers treated by 200 μM 3OC12-HSL and C7 PQS and control (0.15% DMSO in HBSS) for one hour. Confluent cell monolayers were washed with PBS and fixed in 4% paraformaldehyde in PBS for approximately 10 min at room temperature. Cells were then washed 3 times with PBS and permeabilised by incubating with Triton X-100 (0.1% v/v in PBS) for 10 min. Cells were then washed with PBS, followed by the application of 1% BSA/PBS for approximately 1 hour. Thereafter, BSA/PBS solution was aspirated and replaced with mouse, anti-human ZO-1 (primary) antibody, diluted in 1% BSA/PBS to a final concentration of 100 μg/ml. Cell samples were incubated with the primary antibody for 2 hours. The primary antibody solution was then removed and cells washed with PBS (5 times). FITC-labelled goat, anti-mouse (secondary) antibody, diluted according to manufacturer's instructions in 1% BSA/PBS was then applied to the cells for 1 hour. The secondary antibody solution was then aspirated and cells washed with PBS three times. […]

MMP = assay: Fluorogenic MMP activity assay
Experimental: FIG. 5: High-throughput MMP assay (MMP Activity Assay Kit (Fluorometric-Red), Abcam #ab112147) showing the normalised accumulation slope of FRET-based signal (Ex540: Em590 nm) read at 5 minute intervals for one hour in adherent Calu-3 cells cultured in glass-bottomed 96-well plates using a SpectraMax i3x/Biomek FXPP high-throughput platform. Each experiment was conducted in triplicate (error bars). Signal accumulation over time in each well was linearly fitted and the gradient of each fit was scaled against the gradient of the relevant positive control wells, to which active MMP was added directly (mixed isoforms, […]), to obtain the normalised accumulation slope.
To investigate the involvement of MMP in the disruption of tight junctions observed in the presence of 200 μM 3OC12-HSL and C7 PQS, a fluorogenic MMP activity assay was performed, using the Amplite™ Universal Fluorimetric MMP Activity Assay Kit. This kit is designed to check the general activity of a MMP enzyme.
Following treatment with 3OC12-HSL and C7 PQS respectively, the conditioned media were collected every hour from apical chamber and MMP activity was determined by using Amplite™ Universal Fluorimetric MMP Activity Assay Kit Green Fluorescence according to the manufacturer's instructions.
A fluorogenic MMP activity assay was carried out in the same manner on further agents.

Caco-2 cell layers = conditions: 3OC12-HSL 200 μM
Experimental: FIG. 3: Macromolecular therapeutics transported across Caco-2 cell layers in the absence (dashed line) and presence (line) of 3OC12-HSL transported into the basolateral chamber over a period of five hours. Permeability experiments were initiated by applying 0.5 ml of the test solutions (250 μg/ml Aflibercept/Bevacizumab/or Doxorubicin diluted in HBSS/HEPES) to the apical side of the cells (donor compartment of the Transwell) with or without 3OC12-HSL (200 μM). Drug permeability was determined by sampling the basolateral solution at regular time intervals. Data points are expressed as means±SEM, derived from three replicates in triplicate. p values of <0.05 were considered statistically significant. *, ** and *** denote p<0.05, p<0.01 and p<0.001, respectively.
Calu-3 cells obtained from American Type Culture Collection, USA were cultured using Dulbecco's Modified Eagle Medium (DMEM) supplemented with penicillin (100 U/mL), streptomycin (0.1 mg/mL), amphotericin (0.25 μg/mL), non-essential amino acids (NEM, 1%) and Fetal Bovine Serum (FBS, 10% v/v, Sigma-Aldrich, UK). The human-derived RPE cell line ARPE-19 was obtained from American Type Culture Collection. […]
Three polarised epithelial in-vitro tissue models, including lung epithelium (Calu-3), retinal pigment epithelium (ARPE-19) and intestinal epithelial (Caco-2) were used to study the efficiency of 200 μM 3OC12-HSL as a paracellular permeability enhancer for three different drugs: bevacizumab, aflibercept and doxorubicin (applied concentrations 250 μg/mL). The amount of drugs transported was determined via the conversion of fluorescence intensity to amount (μg or ng), using calibration curves constructed via serial standard dilutions. […]
Permeability experiments were initiated by applying 0.5 mL of the test solutions to the apical side of the cells (donor compartment of the Transwell®). […] Drug permeability was determined by sampling the basolateral solution at regular time intervals. […]

Structure (SMILES): CCCCCCCCCC(=O)CC(=O)N[C@H]1CCOC1=O [Agent 3OC12-HSL, N-(3-oxododecanoyl) homoserine lactone]
- ZO-1 distribution at tight junctions (ZO-1): considerable dislocation of ZO-1 proteins
- MMP activation in apical samples taken at one-hour intervals (MMP; 200 μM, p<0.01, no fluorescence in control samples): significant MMP activation
- period over which MMP activation increased before starting to reduce (MMP; samples taken hourly from apical chamber): 4 h
- enhancement of aflibercept transport by 3OC12-HSL (Caco-2 cell layers; aflibercept 250 μg/ml): 11 fold
- enhancement of bevacizumab transport by 3OC12-HSL (Caco-2 cell layers; bevacizumab 250 μg/ml): 8 fold
- enhancement of doxorubicin transport by 3OC12-HSL (Caco-2 cell layers; doxorubicin 250 μg/ml, after 5 hours): 19 fold
